US6465457B1 (priority 1991, dated 2002)
Where two headings read alike, the source gives them in different places.

What was measured:
Assay type in all cases: in vivo
[1] = system: Erysiphe graminis tritici (Wheat); assay: Foliar fungal disease test on plants: Erysiphe graminis tritici (Wheat); settings: 100 ppm a.i. foliar spray or root drench (approx. 40 ppm in dry soil); plants inoculated 24 hours before treatment
Description: (§1) The compounds were tested against a variety of foliar fungal diseases of plants. The technique employed was as follows.
(§2) The plants were grown in John Innes Potting Compost (No 1 or 2) in 4 cm diameter minipots. The test compounds were formulated either by bead milling with aqueous DISPERSOL T or as a solution in acetone or acetone/ethanol which was diluted to the required concentration immediately before use. […] The sprays were applied to maximum retention and the root drenches to a final concentration equivalent to approximately 40 ppm a.i. in dry soil. TWEEN 20 was added to give a final concentration of 0.05% when the sprays were applied to cereals.
(§3) For most of the tests the compounds were applied to the soil (roots) or to the foliage (by spraying) one or two days before the plant was inoculated with the disease. An exception was the test on Erysiphe graminis in which the plants were inoculated 24 hours before treatment. Foliar pathogens were applied by spray as zoosporangial suspensions onto the leaves of test plants. After inoculation, the plants were put into an appropriate environment to allow infection to proceed and then incubated until the disease was ready for assessment. The period between inoculation and assessment varied from four to fourteen days according to the disease and environment.
(§4) The disease level present (i.e. leaf area covered by actively sporulating disease) on each of the treated plants was recorded using the following assessment scale:
(§5) Each assessment was then expressed as a percentage of the level of disease present on the untreated control plants. This calculated value is referred to as a POCO (Percentage of Control) value. An example of a typical calculation is as follows:
(§6) Disease level on untreated control=90
(§7) Disese level on treated plant=30 [formula]
(§8) This calculated POCO value is then rounded to the nearest of the values in the 9-point assessment scale shown above. In this particular example, the POCO value would be rounded to 30. If the calculated POCO falls exactly mid-way between two of the points, it is rounded to the lower of the two values.

Septoria nodorum (Wheat) = assay: Foliar fungal disease test on plants: Septoria nodorum (Wheat); settings: one or two days before inoculation
Description: as §1, §2, §3, §4, §5, §6, §7, §8

[2] = system: Puccinia recondita (Wheat); assay: Foliar fungal disease test on plants: Puccinia recondita (Wheat)
Description: as §1
The plants were grown in John Innes Potting Compost (No 1 or 2) in 4 cm diameter minipots. The test compounds were formulated either by bead milling with aqueous DISPERSOL T or as a solution in acetone or acetone/ethanol which was diluted to the required concentration immediately before use. The formulations (100 ppm active ingredient) were sprayed on to the foliage or applied to the roots of the plants in the soil. The sprays were applied to maximum retention and the root drenches to a final concentration equivalent to approximately 40 ppm a.i. in dry soil. TWEEN 20 was added to give a final concentration of 0.05% when the sprays were applied to cereals.
[…] An exception was the test on Erysiphe graminis in which the plants were inoculated 24 hours before treatment. Foliar pathogens were applied by spray as zoosporangial suspensions onto the leaves of test plants. After inoculation, the plants were put into an appropriate environment to allow infection to proceed and then incubated until the disease was ready for assessment. The period between inoculation and assessment varied from four to fourteen days according to the disease and environment.
as §4, §5, §6, §7, §8

[3] = system: Plasmopara viticola (Vines); assay: Foliar fungal disease test on plants: Plasmopara viticola (Vines); settings: one or two days before inoculation
Description: as §1, §2, §3, §4, §5, §6, §7, §8

[4] = system: Pyricularia oryzae (Rice); settings: one or two days before inoculation
[5] = system: Thanatephorus cucumeries (Rice); assay: Foliar fungal disease test on plants: Thanatephorus cucumeries (Rice); settings: one or two days before inoculation
Description: as §1, §2, §3, §4, §5, §6, §7, §8

[6] = system: Phytophthora infestans (Tomatoes); settings: one or two days before inoculation
[7] = system: Venturia inaequalis (Apples); assay: Foliar fungal disease test on plants: Venturia inaequalis (Apples); settings: one or two days before inoculation
Description: as §1, §2, §3, §4, §5, §6, §7, §8

[8] = 100 ppm a.i. foliar spray or root drench (approx. 40 ppm in dry soil)
[9] = 100 ppm a.i. foliar spray or root drench (approx. 40 ppm in dry soil), one or two days before inoculation
[10] = 10 ppm foliar spray only, one or two days before inoculation
[11] = 100 ppm a.i. foliar spray or root drench, plants inoculated with Puccinia recondita 48 hours before treatment

Structure (SMILES)	POCO (Percentage of Control) disease level, Erysiphe graminis tritici (Wheat) [1]	POCO (Percentage of Control) disease level, Septoria nodorum (Wheat) (Septoria nodorum (Wheat); [8])	POCO (Percentage of Control) disease level, Puccinia recondita (Wheat) [2, 9]	POCO (Percentage of Control) disease level, Plasmopara viticola (Vines) [3, 8]	POCO (Percentage of Control) disease level, Pyricularia oryzae (Rice) [4, 8]	POCO (Percentage of Control) disease level, Thanatephorus cucumeries (Rice) [5, 8]	POCO (Percentage of Control) disease level, Septoria nodorum (Wheat) (Septoria nodorum (Wheat); 10 ppm foliar spray only)	POCO (Percentage of Control) disease level, Puccinia recondita (Wheat) [2, 10]	POCO (Percentage of Control) disease level, Plasmopara viticola (Vines) ([3]; 10 ppm foliar spray only)	POCO (Percentage of Control) disease level, Phytophthora infestans (Tomatoes) ([6]; 10 ppm foliar spray only)	POCO (Percentage of Control) disease level, Pyricularia oryzae (Rice) ([4]; 10 ppm foliar spray only)	POCO (Percentage of Control) disease level, Venturia inaequalis (Apples) ([7]; 10 ppm foliar spray only)	POCO (Percentage of Control) disease level, Thanatephorus cucumeries (Rice) ([5]; 10 ppm foliar spray only)	POCO (Percentage of Control) disease level, Phytophthora infestans (Tomatoes) [6, 8]	POCO (Percentage of Control) disease level, Puccinia recondita (Wheat) [2, 11]	POCO (Percentage of Control) disease level, Venturia inaequalis (Apples) [7, 8]
COC=C(C(=O)OC)c1ccccc1OC(=O)NCc1ccccc1 [4 (17)]	10 (10 = 5.1-10% disease present)	60 (60 = 30.1-60% disease present)	1 (1 = 0.1-1% disease present)	0 (0 = 0% disease present)	5 (5 = 3.1-5% disease present)	0 (0 = 0% disease present)	–	–	–	–	–	–	–	–	–	–
COC=C(C(=O)OC)c1ccccc1COC(=S)Nc1ccccc1 [5 (6)]	–	–	–	–	–	–	90 (90 and 94 = 60.1-100% disease present)	90 (90 and 94 = 60.1-100% disease present)	90 (90 and 94 = 60.1-100% disease present)	90 (90 and 94 = 60.1-100% disease present)	60 (60 = 30.1-60% disease present)	0 (0 = 0% disease present)	0 (0 = 0% disease present)	–	–	–
COC=C(C(=O)OC)c1ccccc1COC(=O)Nc1cccc(OC)c1 [7 (1)]	5 (5 = 3.1-5% disease present)	90 (90 and 94 = 60.1-100% disease present)	10 (10 = 5.1-10% disease present)	60 (60 = 30.1-60% disease present)	0 (0 = 0% disease present)	60 (60 = 30.1-60% disease present)	–	–	–	–	–	–	–	90 (90 and 94 = 60.1-100% disease present)	–	–
COC=C(C(=O)OC)c1ccccc1COC(=S)Nc1ccc([N+](=O)[O-])cc1 [9 (6)]	90 (90 and 94 = 60.1-100% disease present)	90 (90 and 94 = 60.1-100% disease present)	90 (90 and 94 = 60.1-100% disease present)	90 (90 and 94 = 60.1-100% disease present)	20 (20 and 24 = 10.1-20% disease present)	90 (90 and 94 = 60.1-100% disease present)	–	–	–	–	–	–	–	–	–	–
COC=C(C(=O)OC)c1ccccc1COC(=S)Nc1ccc(Cl)cc1 [11 (6)]	–	–	–	–	–	–	60 (60 = 30.1-60% disease present)	20 (20 and 24 = 10.1-20% disease present)	0 (0 = 0% disease present)	–	20 (20 and 24 = 10.1-20% disease present)	–	90 (90 and 94 = 60.1-100% disease present)	–	–	–
COC=C(C(=O)OC)c1ccccc1COC(=O)Nc1ccccc1[N+](=O)[O-] [15 (1)]	–	0 (0 = 0% disease present)	–	0 (0 = 0% disease present)	5 (5 = 3.1-5% disease present)	–	–	–	–	–	–	–	–	3 (3 = 1.1-3% disease present)	90+ (90 and 94 = 60.1-100% disease present)	0 (0 = 0% disease present)
COC=C(C(=O)OC)c1ccccc1COC(=O)N(C)c1ccccc1[N+](=O)[O-] [15 (2)]	–	5 (5 = 3.1-5% disease present)	–	0 (0 = 0% disease present)	0 (0 = 0% disease present)	–	–	–	–	–	–	–	–	60 (60 = 30.1-60% disease present)	0+ (0 = 0% disease present)	0 (0 = 0% disease present)
COC=C(C(=O)OC)c1ccccc1COC(=S)Nc1ccccc1SC [21 (6)]	3 (3 = 1.1-3% disease present)	0 (0 = 0% disease present)	0 (0 = 0% disease present)	0 (0 = 0% disease present)	0 (0 = 0% disease present)	0 (0 = 0% disease present)	–	–	–	–	–	–	–	–	–	–
COC=C(C(=O)OC)c1ccccc1COC(=O)N(C)c1cc(F)ccc1F [27 (2)]	–	0 (0 = 0% disease present)	–	0 (0 = 0% disease present)	0 (0 = 0% disease present)	0 (0 = 0% disease present)	–	–	–	–	–	–	–	5 (5 = 3.1-5% disease present)	0+ (0 = 0% disease present)	0 (0 = 0% disease present)
COC=C(C(=O)OC)c1ccccc1COC(=O)Nc1ccccc1C#N [29 (1)]	5 (5 = 3.1-5% disease present)	60 (60 = 30.1-60% disease present)	–	20 (20 and 24 = 10.1-20% disease present)	0 (0 = 0% disease present)	5 (5 = 3.1-5% disease present)	–	–	–	–	–	–	–	–	30+ (30 = 20.1-30% disease present)	0 (0 = 0% disease present)
COC=C(C(=O)OC)c1ccccc1COC(=O)N(C)c1ccccc1C#N [29 (2)]	0 (0 = 0% disease present)	30 (30 = 20.1-30% disease present)	–	0 (0 = 0% disease present)	0 (0 = 0% disease present)	30 (30 = 20.1-30% disease present)	–	–	–	–	–	–	–	–	20+ (20 and 24 = 10.1-20% disease present)	0 (0 = 0% disease present)
